This note sets out measurements from ChEMBL document CHEMBL3431459, “Roche carnitine palmitoyltransferase modulator screening data (supplementary data associated with the publication CHEMBL2216752)”.

Values after ≈ are worked out from the molar mass of the structure shown. A value given as a limit tells only on which side of the number the result lay.

Series [1] concerns the target T1, Carnitine O-palmitoyltransferase 1, muscle isoform (Homo sapiens, UniProt Q92523).
T1 sequence (Q92523 whole entry): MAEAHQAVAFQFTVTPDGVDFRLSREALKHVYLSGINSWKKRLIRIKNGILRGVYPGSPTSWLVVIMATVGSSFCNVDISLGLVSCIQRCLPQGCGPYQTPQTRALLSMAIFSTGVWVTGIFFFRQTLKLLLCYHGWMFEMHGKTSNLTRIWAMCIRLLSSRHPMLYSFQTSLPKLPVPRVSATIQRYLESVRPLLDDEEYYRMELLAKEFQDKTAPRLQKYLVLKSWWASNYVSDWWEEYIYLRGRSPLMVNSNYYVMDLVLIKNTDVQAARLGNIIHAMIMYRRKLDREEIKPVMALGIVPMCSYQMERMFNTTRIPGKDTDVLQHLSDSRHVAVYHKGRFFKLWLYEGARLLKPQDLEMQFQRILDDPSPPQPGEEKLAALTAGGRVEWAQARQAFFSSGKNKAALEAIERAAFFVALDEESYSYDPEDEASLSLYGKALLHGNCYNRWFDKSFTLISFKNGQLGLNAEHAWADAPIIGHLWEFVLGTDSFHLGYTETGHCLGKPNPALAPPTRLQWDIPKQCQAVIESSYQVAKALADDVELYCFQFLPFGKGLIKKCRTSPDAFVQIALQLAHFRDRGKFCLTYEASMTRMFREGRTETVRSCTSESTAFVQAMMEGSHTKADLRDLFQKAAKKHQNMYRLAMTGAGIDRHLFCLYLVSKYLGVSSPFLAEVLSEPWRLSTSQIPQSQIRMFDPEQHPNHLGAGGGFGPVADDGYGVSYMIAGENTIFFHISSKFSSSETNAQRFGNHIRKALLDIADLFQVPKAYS
Kind of series: SUPPLEMENTARY: Inhibition of Carnitine palmitoyltransferase 1, muscle isoform. Details: species or system Muscle tissue.

For series [2], the target named is T2, Carnitine O-palmitoyltransferase 2, mitochondrial (Homo sapiens, UniProt P23786).
T2 sequence (P23786 whole entry): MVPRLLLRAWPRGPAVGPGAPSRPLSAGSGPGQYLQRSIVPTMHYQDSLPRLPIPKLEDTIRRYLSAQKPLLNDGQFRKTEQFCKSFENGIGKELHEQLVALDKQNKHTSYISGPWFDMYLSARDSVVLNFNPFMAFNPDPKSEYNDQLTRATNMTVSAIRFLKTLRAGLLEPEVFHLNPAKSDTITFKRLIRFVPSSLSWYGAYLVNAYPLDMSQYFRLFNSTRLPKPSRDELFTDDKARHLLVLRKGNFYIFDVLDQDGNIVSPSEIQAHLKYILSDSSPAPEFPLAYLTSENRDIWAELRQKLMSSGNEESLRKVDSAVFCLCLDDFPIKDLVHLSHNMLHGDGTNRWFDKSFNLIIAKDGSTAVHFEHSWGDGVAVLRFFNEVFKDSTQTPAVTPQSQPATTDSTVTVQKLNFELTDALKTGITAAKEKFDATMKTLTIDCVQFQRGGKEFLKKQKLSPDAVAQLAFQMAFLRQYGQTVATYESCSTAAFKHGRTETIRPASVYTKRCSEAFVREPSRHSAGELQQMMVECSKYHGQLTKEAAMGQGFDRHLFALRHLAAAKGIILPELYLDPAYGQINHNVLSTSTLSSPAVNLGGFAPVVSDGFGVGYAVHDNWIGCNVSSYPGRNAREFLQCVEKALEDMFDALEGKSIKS
Put plainly: (§1) SUPPLEMENTARY: Inhibition of Carnitine palmitoyltransferase 2.

Series [3] addresses T3, Carnitine O-palmitoyltransferase 2, mitochondrial (Rattus norvegicus, UniProt P18886).
T3 sequence (P18886 whole entry): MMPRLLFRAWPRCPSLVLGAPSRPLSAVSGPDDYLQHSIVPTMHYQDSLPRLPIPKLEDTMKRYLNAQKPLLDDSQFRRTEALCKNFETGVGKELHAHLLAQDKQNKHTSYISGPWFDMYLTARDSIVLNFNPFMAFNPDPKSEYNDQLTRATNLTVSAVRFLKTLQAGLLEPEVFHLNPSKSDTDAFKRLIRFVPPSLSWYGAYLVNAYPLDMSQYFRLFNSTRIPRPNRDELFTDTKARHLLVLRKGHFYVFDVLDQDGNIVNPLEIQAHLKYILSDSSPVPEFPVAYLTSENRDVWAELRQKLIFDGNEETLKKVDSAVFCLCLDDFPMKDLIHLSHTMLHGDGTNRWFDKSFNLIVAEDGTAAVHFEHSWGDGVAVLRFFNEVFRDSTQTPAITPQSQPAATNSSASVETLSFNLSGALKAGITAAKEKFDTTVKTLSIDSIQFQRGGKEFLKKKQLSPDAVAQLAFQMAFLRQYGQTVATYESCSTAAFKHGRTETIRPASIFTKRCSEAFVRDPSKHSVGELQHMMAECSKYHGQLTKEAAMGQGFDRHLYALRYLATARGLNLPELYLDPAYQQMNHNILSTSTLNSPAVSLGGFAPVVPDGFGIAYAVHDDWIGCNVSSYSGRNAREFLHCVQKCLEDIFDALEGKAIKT
Described as §1.

Series [4] can be described thus: SUPPLEMENTARY: PAMPA permeability assay. In kind it is physicochemical. The conditions noted are these: read-out: Permeability. (The PAMPA barrier holds no transporters, so it reflects passive diffusion.)
Series [5] addresses T4, Carnitine O-palmitoyltransferase 1, liver isoform (Rattus norvegicus, UniProt P32198).
T4 sequence (P32198 whole entry): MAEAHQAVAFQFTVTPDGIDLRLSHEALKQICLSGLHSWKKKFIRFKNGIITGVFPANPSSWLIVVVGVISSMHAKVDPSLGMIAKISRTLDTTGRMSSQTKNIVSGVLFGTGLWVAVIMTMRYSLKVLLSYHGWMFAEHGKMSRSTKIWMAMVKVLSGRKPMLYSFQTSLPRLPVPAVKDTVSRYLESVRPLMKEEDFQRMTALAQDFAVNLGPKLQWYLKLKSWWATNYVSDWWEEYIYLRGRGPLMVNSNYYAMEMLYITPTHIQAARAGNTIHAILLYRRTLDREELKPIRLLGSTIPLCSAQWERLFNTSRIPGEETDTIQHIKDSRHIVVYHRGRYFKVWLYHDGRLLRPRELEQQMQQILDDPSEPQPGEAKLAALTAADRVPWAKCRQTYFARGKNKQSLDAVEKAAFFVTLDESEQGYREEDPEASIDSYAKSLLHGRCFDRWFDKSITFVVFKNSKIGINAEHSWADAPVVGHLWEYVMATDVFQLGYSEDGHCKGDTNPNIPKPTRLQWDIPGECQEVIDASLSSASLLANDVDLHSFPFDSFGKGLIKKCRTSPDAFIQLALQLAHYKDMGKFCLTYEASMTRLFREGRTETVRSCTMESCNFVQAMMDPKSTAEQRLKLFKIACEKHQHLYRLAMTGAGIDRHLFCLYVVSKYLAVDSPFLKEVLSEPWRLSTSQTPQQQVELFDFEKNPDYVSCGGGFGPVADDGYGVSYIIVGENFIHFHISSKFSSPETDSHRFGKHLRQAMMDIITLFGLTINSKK
Put plainly: (§2) SUPPLEMENTARY: Inhibition of Carnitine palmitoyltransferase 1, liver isoform.

Series [6] concerns the target T5, Carnitine O-palmitoyltransferase 1, liver isoform (Homo sapiens, UniProt P50416).
T5 sequence (P50416 whole entry): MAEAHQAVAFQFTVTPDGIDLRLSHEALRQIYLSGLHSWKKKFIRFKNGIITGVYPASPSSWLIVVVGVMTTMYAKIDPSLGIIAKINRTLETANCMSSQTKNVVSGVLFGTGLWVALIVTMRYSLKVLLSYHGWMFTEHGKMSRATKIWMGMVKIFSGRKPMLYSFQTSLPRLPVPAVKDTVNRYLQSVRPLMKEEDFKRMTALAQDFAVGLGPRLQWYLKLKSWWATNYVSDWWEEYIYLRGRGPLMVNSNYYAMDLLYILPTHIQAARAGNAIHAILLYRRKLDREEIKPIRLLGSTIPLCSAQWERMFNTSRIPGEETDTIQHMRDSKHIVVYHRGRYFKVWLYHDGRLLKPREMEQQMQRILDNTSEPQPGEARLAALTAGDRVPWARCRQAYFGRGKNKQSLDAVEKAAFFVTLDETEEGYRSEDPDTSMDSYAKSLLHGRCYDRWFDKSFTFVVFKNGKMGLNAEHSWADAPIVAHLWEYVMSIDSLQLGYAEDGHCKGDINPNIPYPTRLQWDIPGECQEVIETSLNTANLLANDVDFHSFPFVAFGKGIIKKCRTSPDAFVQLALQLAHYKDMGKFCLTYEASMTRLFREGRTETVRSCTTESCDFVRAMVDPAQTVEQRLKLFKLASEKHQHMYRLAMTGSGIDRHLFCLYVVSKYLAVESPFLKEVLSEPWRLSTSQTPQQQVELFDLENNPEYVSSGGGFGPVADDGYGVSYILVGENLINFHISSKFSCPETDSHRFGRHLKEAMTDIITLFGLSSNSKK
The series is described as §2.

A short description of series [7]: SUPPLEMENTARY: Lipophilicity (log D) Determination by high-throughput shake-flask. The conditions noted are these: octanol/water. In kind it is physicochemical.
A short description of series [8]: SUPPLEMENTARY: Lyophilisation Solubility Assay (LYSA). In kind it is physicochemical. The conditions noted are these: read-out: Kinetic_solubility.

For `COc1ccc(Cl)cc1S(=O)(=O)N1CCOc2ccc(C(=O)Nc3ccc(C(=O)O)c(F)c3)cc21`, the IC50 turned out to be 1.8 µM in series [1]; 6.3 µM in series [2]; 23.4 µM in series [3]; 0.0805 µM in series [5]; 0.0651 µM in series [6]. Also, in series [4], the Papp was found to be 1.71 ×10⁻⁶ cm/s. The logD in series [7] was 0.29. Also, the solubility kinetic in series [8] amounted to 15 µg/mL (≈ 28.8 µM).

With `COc1ccc(Cl)cc1S(=O)(=O)N1CCOc2ccc(C(=O)Nc3ccc(C(=O)O)c(Cl)c3)cc21`, the IC50 in series [1] was 3.58 µM; in series [2], 5.13 µM; in series [3], 21 µM; in series [5], 0.1 µM; in series [6] it was 0.248 µM. The Papp in series [4] came to 1.45 ×10⁻⁶ cm/s. In addition, in series [7], the logD came to 0.12. Further, the solubility kinetic in series [8] is > 716 µg/mL.

For `COc1ccc(Cl)cc1S(=O)(=O)N1CCc2ccc(C#Cc3ccc(C(=O)O)cc3)cc21`, the IC50 in series [1] is 82.2 µM; in series [2], > 100 µM; in series [3], > 100 µM; in series [5], 0.112 µM; in series [6] it was 0.111 µM. Moreover, the Papp in series [4] was 0.26 ×10⁻⁶ cm/s. The molecule also displayed a logD in series [7] of 3.3. The solubility kinetic in series [8] is < 1 µg/mL.

Regarding `COc1ccc(Cl)cc1S(=O)(=O)N1CCOc2ccc(C(=O)Nc3ccc(C(=O)O)nc3)cc21`, the half-inhibitory concentration (IC50) came out at 22.6 µM in series [1]; 5.45 µM in series [2]; 24.6 µM in series [3]; 0.575 µM in series [5]; 0.232 µM in series [6]. Also, the Papp in series [4] amounted to 0.57 ×10⁻⁶ cm/s. Moreover, the logD in series [7] was -0.42. Moreover, the solubility kinetic in series [8] was determined as 195 µg/mL (≈ 387 µM).

Turning to `CCC(=O)Nc1cccc(-c2n[nH]c([C@H]3CCCCN3C(=O)COc3ccccc3)n2)c1`, the IC50 in series [1] is > 100 µM; in series [2] it was 65.7 µM; in series [3] it was 76.2 µM; in series [5], 0.33 µM; in series [6], 0.0356 µM. In addition, the Papp in series [4] turned out to be 2.89 ×10⁻⁶ cm/s. In series [7], this molecule came in with a logD of 2.96. Moreover, the solubility kinetic in series [8] worked out at 56 µg/mL (≈ 129 µM).

For `CC(C)C(=O)Nc1cccc(-c2n[nH]c([C@H]3CCCCN3C(=O)COc3ccccc3)n2)c1`, the half-inhibitory concentration (IC50) was > 100 µM in series [1]; 36.7 µM in series [2]; 24.1 µM in series [3]; 0.692 µM in series [5]; 0.0721 µM in series [6]. In addition, the Papp in series [4] was 2.6 ×10⁻⁶ cm/s. Besides, the logD in series [7] is 3.32. For the same molecule, the solubility kinetic in series [8] came to 29 µg/mL (≈ 64.8 µM).

On to `CC(=O)Nc1cccc(-c2nc([C@H]3CCCCN3C(=O)COc3ccccc3)no2)c1`, for which the IC50 was > 100 µM in series [1]; 72.8 µM in series [2]; > 100 µM in series [3]; 0.104 µM in series [5]; 0.0438 µM in series [6]. Besides, in series [4], the Papp was determined as 2.55 ×10⁻⁶ cm/s. The molecule also showed a logD in series [7] of 3.01. Besides, the solubility kinetic in series [8] came to 17 µg/mL (≈ 40.4 µM).

For the molecule `CCNC(=O)Nc1cccc(-c2n[nH]c([C@H]3CCCCN3C(=O)COc3ccccc3)n2)c1`, the IC50 came out at 97 µM in series [1]; 57.5 µM in series [2]; 62.9 µM in series [3]; 0.811 µM in series [5]; 0.0523 µM in series [6]. Moreover, in series [4], the Papp amounted to 2.23 ×10⁻⁶ cm/s. In series [7], this molecule yielded a logD of 2.84. The solubility kinetic in series [8] came to 69 µg/mL (≈ 154 µM).

For the molecule `O=C1CCN1c1cccc(-c2n[nH]c([C@H]3CCCCN3C(=O)COc3ccccc3)n2)c1`, the IC50 was > 100 µM in series [1]; 44.2 µM in series [2]; 74.7 µM in series [3]; 0.316 µM in series [5]; 0.114 µM in series [6]. Also, the Papp in series [4] amounted to 2 ×10⁻⁶ cm/s. Further, the logD in series [7] worked out at 2.9. The solubility kinetic in series [8] is 33 µg/mL (≈ 76.5 µM).

In the case of `COc1ccc(Cl)cc1S(=O)(=O)N1COc2ccc(C(=O)Nc3ccc(C(=O)O)cc3)cc21`, the IC50 in series [1] came out at 5.49 µM; in series [2], 2.89 µM; in series [3] it was 6.56 µM; in series [5], 0.0407 µM; in series [6], 0.0561 µM. Besides, the Papp in series [4] is 2.93 ×10⁻⁶ cm/s. The molecule further showed a logD in series [7] of 0.65. In series [8], the solubility kinetic turned out to be 13 µg/mL (≈ 26.6 µM).

By IC50 is commonly meant the point on the concentration scale where inhibition reaches its midpoint. Low readings indicate higher potency, high ones lower potency. The term logD denotes lipophilicity at a set pH, counting ionised and neutral species.
